This note sets out measurements from patent US20040266843A1, “Sulfonamide substituted indolinones as inhibitors of DNA dependent protein kinase (DNA-PK)” (Sugen, Inc., priority 2003, published 2004).

Data set [1] has as its target DNA-PKcs (Homo sapiens, UniProt P78527). Kind of data set: DNA-PK assay, Scintillation Proximity Assay (SPA) format. The class given is biochemical. The conditions noted are these: room temperature, 0.23 nM DNA-PKcs, 0.3 μM ATP, 1% DMSO. How it is done: The assay for DNA-PK was optimized to be performed in 96-well plates using a Scintillation Proximity Assay (SPA) format at room temperature. […] When inhibitors were included, they were diluted to 5× the desired concentration in 5% DMSO and diluted 1:5 in the reaction mixture bringing the final DMSO concentration to 1%. […] Activating DNA-DNA fragment consisting of 32 complementary base pairs with 5 non-complementary T's on both ends of the two strands Sequence-[NT], and of the complementary strand-[NT]. […] Peptide substrate-biotin-[…]. Dissolved in DMSO at a concentration of 5 mg/ml for the stock solution. Alternatively, fragments of the peptide substrate can be used, such as, without limitation, […]. The kinase reaction was stopped by adding […] of a solution containing 50 μM ATP, 5 mM EDTA, 0.1% Triton X-100, and 0.5 mg of streptavidin coated polyvinyltoluene SPA beads (Amersham). After a 10 min. incubation and a short spin (to pellet the beads), the plates were read on a Trilux plate reader.
A general note: Scintillation proximity formats need no separation of bound from free tracer.

Data set [2] is described as follows: Storage stability of stock solution. Conditions: 2 mM in DMSO, stored at −70° C., after 12 months. Type of data set: physicochemical. How it is done:
3-[2,4-Diethyl-5-(2-oxo-5-phenylsulfamoyl-1,2-dihydro-indol-3-ylidenemethyl)-1H-pyrrol-3-yl]-propionic acid was dissolved in DMSO at 20 mg/ml and stored at −70° C. Calicheamicin μl was a generous gift from George Ellestad (Wyeth-Ayers Research). The drug was dissolved at 2 mM in DMSO (Sigma) and stored at −70° C. […] Wortmannin (Sigma) was dissolved at 1 mg/ml in DMSO and stored at −70° C. Recombinant p110 was purchased from Alexis and stored at −70° C. The glioblastoma cell line Mo59K and primary human fibroblasts was grown in Dulbecos MEM with glutamax (Invitrogen) supplemented with 10% Fetal calf serum, streptomycin and penicillin at 37° C. in a humidified cell incubator with 5% CO2. FACS analysis of cell cycle distribution after propiumiodide staining was done using standard protocols. Monolayers were irradiated on ice using a Philips RT 100 X-ray machine. An acceleration voltage of 70 kV was used.

DNA-PKcs, sequence (P78527 whole entry, the tested form may be a part): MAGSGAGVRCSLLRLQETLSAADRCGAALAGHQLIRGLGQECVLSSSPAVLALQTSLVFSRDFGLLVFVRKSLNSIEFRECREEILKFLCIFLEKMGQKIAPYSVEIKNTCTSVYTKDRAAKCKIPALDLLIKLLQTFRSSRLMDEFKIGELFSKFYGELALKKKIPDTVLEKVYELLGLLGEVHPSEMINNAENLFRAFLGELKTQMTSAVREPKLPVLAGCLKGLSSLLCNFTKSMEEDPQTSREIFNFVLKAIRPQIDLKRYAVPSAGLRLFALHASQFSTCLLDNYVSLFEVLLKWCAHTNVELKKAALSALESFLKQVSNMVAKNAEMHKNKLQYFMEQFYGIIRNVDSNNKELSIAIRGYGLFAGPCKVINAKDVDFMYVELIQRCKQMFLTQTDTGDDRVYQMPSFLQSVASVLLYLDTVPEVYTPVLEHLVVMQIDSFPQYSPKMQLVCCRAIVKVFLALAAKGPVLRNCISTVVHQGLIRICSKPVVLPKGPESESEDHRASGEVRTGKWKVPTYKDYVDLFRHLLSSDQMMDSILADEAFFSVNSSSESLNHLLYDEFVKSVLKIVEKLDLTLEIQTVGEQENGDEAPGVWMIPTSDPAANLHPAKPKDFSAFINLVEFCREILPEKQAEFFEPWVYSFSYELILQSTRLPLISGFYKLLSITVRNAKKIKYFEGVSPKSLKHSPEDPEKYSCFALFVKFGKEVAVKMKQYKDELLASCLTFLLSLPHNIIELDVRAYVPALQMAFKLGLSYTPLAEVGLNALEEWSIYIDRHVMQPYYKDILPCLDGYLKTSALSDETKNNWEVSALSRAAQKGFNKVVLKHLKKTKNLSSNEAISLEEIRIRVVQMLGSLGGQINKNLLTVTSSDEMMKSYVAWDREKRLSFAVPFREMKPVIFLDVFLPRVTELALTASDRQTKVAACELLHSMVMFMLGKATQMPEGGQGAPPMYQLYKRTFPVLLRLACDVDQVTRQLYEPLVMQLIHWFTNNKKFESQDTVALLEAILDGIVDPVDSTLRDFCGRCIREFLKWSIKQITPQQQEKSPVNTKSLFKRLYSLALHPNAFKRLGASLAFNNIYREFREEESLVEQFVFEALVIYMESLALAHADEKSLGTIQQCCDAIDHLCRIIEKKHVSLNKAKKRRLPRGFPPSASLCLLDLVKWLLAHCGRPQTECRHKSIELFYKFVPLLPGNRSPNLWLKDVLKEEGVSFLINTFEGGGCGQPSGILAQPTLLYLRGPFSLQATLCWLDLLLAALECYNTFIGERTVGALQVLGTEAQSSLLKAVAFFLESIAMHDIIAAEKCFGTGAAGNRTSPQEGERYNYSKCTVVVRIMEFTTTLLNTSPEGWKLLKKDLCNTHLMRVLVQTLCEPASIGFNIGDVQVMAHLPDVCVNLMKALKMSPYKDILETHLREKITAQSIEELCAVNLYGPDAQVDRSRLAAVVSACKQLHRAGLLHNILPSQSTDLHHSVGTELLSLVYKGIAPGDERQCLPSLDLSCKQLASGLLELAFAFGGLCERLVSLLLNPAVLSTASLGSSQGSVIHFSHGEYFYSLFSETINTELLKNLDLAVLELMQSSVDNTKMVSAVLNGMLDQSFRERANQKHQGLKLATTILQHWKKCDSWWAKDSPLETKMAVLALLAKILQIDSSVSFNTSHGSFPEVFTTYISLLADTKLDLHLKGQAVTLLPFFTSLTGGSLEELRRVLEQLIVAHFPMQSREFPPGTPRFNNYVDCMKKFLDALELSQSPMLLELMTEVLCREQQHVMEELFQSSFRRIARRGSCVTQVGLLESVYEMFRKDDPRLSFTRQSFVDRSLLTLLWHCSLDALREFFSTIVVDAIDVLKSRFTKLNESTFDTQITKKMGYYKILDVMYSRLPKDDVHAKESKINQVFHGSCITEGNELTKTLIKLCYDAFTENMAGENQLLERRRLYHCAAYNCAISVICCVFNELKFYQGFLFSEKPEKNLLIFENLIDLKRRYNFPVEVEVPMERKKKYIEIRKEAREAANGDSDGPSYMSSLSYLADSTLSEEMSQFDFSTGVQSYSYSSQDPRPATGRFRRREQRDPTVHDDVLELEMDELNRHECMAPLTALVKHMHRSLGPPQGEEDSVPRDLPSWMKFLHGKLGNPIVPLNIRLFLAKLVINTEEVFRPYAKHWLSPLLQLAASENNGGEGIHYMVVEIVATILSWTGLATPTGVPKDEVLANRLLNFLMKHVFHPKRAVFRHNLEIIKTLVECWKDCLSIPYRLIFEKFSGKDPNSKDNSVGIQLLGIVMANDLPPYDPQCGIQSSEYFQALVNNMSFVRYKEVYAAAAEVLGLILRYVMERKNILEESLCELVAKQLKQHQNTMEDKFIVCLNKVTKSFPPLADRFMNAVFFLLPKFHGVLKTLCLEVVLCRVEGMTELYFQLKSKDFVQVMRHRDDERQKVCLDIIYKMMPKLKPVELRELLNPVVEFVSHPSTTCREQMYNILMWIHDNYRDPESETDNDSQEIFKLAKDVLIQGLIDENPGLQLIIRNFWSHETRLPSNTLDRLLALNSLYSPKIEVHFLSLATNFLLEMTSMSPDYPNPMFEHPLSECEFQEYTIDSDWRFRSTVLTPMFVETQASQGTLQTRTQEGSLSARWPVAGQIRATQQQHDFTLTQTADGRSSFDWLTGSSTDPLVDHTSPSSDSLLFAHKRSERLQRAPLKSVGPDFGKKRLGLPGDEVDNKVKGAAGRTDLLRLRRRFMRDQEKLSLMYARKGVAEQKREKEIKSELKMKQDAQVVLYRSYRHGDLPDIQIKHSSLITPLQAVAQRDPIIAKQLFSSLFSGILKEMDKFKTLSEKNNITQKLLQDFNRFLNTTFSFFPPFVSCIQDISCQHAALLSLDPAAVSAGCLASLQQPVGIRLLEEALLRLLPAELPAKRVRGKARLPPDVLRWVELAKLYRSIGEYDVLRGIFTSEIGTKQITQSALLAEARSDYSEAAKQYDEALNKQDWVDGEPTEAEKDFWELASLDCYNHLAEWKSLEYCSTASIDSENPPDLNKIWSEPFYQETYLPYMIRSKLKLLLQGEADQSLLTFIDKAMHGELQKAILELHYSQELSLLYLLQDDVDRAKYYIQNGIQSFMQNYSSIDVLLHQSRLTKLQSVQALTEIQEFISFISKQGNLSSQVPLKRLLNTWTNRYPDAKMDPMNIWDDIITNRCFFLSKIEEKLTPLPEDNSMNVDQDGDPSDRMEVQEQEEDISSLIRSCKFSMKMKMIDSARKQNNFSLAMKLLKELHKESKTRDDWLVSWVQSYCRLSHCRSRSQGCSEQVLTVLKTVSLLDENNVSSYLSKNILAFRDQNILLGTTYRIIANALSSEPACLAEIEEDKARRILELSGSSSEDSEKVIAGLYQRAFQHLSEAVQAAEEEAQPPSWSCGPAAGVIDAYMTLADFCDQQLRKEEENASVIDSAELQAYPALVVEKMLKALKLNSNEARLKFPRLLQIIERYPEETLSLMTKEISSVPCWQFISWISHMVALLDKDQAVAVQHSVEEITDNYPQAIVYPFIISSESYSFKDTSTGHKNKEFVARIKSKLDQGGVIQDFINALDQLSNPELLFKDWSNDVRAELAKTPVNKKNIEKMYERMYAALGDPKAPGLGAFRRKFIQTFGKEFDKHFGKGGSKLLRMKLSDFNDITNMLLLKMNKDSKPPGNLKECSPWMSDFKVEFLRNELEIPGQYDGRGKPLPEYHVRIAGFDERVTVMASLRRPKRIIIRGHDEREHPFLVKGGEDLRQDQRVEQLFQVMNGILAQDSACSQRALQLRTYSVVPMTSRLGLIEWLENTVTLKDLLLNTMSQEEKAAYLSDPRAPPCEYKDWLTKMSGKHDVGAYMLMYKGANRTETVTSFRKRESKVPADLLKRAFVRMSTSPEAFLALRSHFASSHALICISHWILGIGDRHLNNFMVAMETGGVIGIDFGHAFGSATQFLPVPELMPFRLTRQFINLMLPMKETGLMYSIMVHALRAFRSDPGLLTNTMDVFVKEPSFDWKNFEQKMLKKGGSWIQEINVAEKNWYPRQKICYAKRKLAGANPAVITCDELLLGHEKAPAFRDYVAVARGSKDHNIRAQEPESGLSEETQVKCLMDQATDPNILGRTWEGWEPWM

A word on the IC50: it is the concentration needed to halve the response being measured. High values mean weaker potency, low ones greater potency. For “2-oxo-3-[5-(2-pyrrolidin-1-yl-ethoxy-1H-indol-2-ylmethylene]-2,3-dihydro-1H-indole-sulfonic acid amide”, the IC50 in data set [1] turned out to be 1700 nM.

For `CNS(=O)(=O)c1ccc2c(c1)C(=Cc1[nH]c3c(c1CCCN(C)C)CCCC3)C(=O)N2` [3-{3-(3-dimethylamino-propyl)-4,5,6,7-tetrahydro-1H-indol-2-ylmethylene]-2-oxo-2,3-dihydro-1H-indole-5-sulfonic acid methylamide], the IC50 in data set [1] stood at 66000 nM.

For the molecule `Cc1c(CCC(=O)O)c[nH]c1/C=C1\C(=O)Nc2ccc(I)cc21` [3-{5-[(Z)-(5-iodo-2-oxo-1,2-dihydro-3H-indol-3-ylidene)methyl]-4-methyl-1H-pyrrol-3-yl}propanoic acid], the IC50 in data set [1] was determined as 1500 nM.

Take `CCN(CC)CCNC(=O)c1c(C)[nH]c(C=C2C(=O)Nc3ccc(Br)cc32)c1C` [5-(5-bromo-2-oxo-1,2-dihydro-indol-3-ylidenemethyl)-2,4-dimethyl-1H-pyrrole-3-carboxylic acid-(2-diethylamino-ethyl)-amide]: the IC50 in data set [1] came to 34000 nM.

Turning to `CCc1[nH]c(/C=C2\C(=O)Nc3ccc(S(=O)(=O)Nc4ccccc4)cc32)c(CC)c1CCC(=O)O` [Example 83, 3-[2,4-Diethyl-5-(2-oxo-5-phenylsulfamoyl-1,2-dihydro-indol-3-ylidenemethyl)-1H-pyrrol-3-yl]-propionic acid], the IC50 in data set [1] was determined as 1600 nM.

calicheamicin μl: the “loss of activity on storage” value in data set [2] is given as “no loss of activity”.
